Experimental data taken from the supplement of paper PMC11061612.

Columns and labels:
Capivasertib = compound: C1CN(CCC1(C(=O)N[C@@H](CCO)C2=CC=C(C=C2)Cl)N)C3=NC=NC4=C3C=CN4 [Capivasertib]; conditions: max 10 µM
Method in brief: (§1)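 Cancer cell lines were plated in 1536-well plates in 7.5 μl of DMEM/F12 or RPMI with 10% FBS and kept 24 hours at 37°C and 5% CO2 before 72 hours of dosing, with final DMSO typically 0.2%. CellTiter-Glo 2.0 luminescence measured viability, scaled between blank-well and DMSO-well means. Dose responses were fitted to a two-parameter logistic curve with a non-linear mixed effects model. This fit gives the single-agent IC50.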

AZD1775 = compound: C=CCn1c(=O)c2cnc(Nc3ccc(N4CCN(C)CC4)cc3)nc2n1-c1cccc(C(C)(C)O)n1 [AZD1775]; conditions: max 3 µM
Method in brief: as §1

Trametinib = compound: CC(=O)Nc1cccc(-n2c(=O)n(C3CC3)c(=O)c3c(Nc4ccc(I)cc4F)n(C)c(=O)c(C)c32)c1 [Trametinib]; conditions: max 1 µM
Method in brief: as §1

Palbociclib = compound: CC(=O)c1c(C)c2cnc(Nc3ccc(N4CCNCC4)cn3)nc2n(C2CCCC2)c1=O [Palbociclib]; conditions: max 10 µM
Method in brief: as §1

AZD1390 = compound: CC(C)n1c(=O)n(C)c2cnc3cc(F)c(-c4ccc(OCCCN5CCCCC5)nc4)cc3c21 [AZD1390]; conditions: max 0.3 µM
Method in brief: as §1

Venetoclax = compound: CC1(C)CCC(CN2CCN(c3ccc(C(=O)NS(=O)(=O)c4ccc(NCC5CCOCC5)c([N+](=O)[O-])c4)c(Oc4cnc5[nH]ccc5c4)c3)CC2)=C(c2ccc(Cl)cc2)C1 [Venetoclax]; conditions: max 1 µM
Method in brief: as §1

Dasatinib = compound: CC1=C(C(=CC=C1)Cl)NC(=O)C2=CN=C(S2)NC3=CC(=NC(=N3)C)N4CCN(CC4)CCO [Dasatinib]; conditions: max 2 µM
Method in brief: as §1

SG3199 = compound: CC1=CN2[C@@H](C1)C=NC3=CC(=C(C=C3C2=O)OC)OCCCCCOC4=C(C=C5C(=C4)N=C[C@@H]6CC(=CN6C5=O)C)OC [SG3199]; conditions: max 0.001 µM
Method in brief: as §1

AZD2811 = compound: CCN(CCO)CCCOc1ccc2c(Nc3cc(CC(=O)Nc4cccc(F)c4)[nH]n3)ncnc2c1 [AZD2811]; conditions: max 1 µM
Method in brief: as §1

SN-38 = compound: CCc1c2c(nc3ccc(O)cc13)-c1cc3c(c(=O)n1C2)COC(=O)[C@]3(O)CC [SN-38]; conditions: max 0.3 µM
Method in brief: as §1

AZD0156 = compound: CN(C)CCCOc1ccc(-c2ccc3ncc4c(c3c2)n(C2CCOCC2)c(=O)n4C)cn1 [AZD0156]; conditions: max 3 µM
Method in brief: as §1

AZD4320 = compound: CN(CC[C@H](CSC1=CC=CC=C1)NC2=C(C=C(C=C2)S(=O)(=O)NC(=O)C3=CC=C(C=C3)N4CCC(CC4)[C@H](C5=CC=CC=C5C6=CC=C(C=C6)Cl)O)S(=O)(=O)C(F)(F)F)CCO [AZD4320]; conditions: max 1 µM
Method in brief: as §1

Alisertib = compound: COc1cc(Nc2ncc3c(n2)-c2ccc(Cl)cc2C(c2c(F)cccc2OC)=NC3)ccc1C(=O)O [Alisertib]; conditions: max 10 µM
Method in brief: as §1

Gefitinib = compound: COc1cc2ncnc(Nc3ccc(F)c(Cl)c3)c2cc1OCCCN1CCOCC1 [Gefitinib]; conditions: max 10 µM
Method in brief: as §1

Prexasertib = compound: COc1cccc(OCCCN)c1-c1cc(Nc2cnc(C#N)cn2)n[nH]1 [Prexasertib]; conditions: max 1 µM
Method in brief: as §1

Doxorubicin = compound: COc1cccc2c1C(=O)c1c(O)c3c(c(O)c1C2=O)C[C@@](O)(C(=O)CO)C[C@@H]3O[C@H]1C[C@H](N)[C@H](O)[C@H](C)O1 [Doxorubicin]; conditions: max 1 µM
Method in brief: as §1

AZD5153 = compound: COc1nnc2ccc(N3CCC(c4ccc(OCCN5CCN(C)C(=O)[C@H]5C)cc4)CC3)nn12 [AZD5153]; conditions: max 1 µM
Method in brief: as §1

Lapatinib = compound: CS(=O)(=O)CCNCc1ccc(-c2ccc3ncnc(Nc4ccc(OCc5cccc(F)c5)c(Cl)c4)c3c2)o1 [Lapatinib]; conditions: max 10 µM
Method in brief: as §1

AZD8186 = compound: C[C@@H](Nc1cc(F)cc(F)c1)c1cc(C(=O)N(C)C)cc2c(=O)cc(N3CCOCC3)oc12 [AZD8186]; conditions: max 3 µM
Method in brief: as §1

Crizotinib = compound: C[C@@H](Oc1cc(-c2cnn(C3CCNCC3)c2)cnc1N)c1c(Cl)ccc(F)c1Cl [Crizotinib]; conditions: max 10 µM
Method in brief: as §1

Savolitinib = compound: C[C@@H](c1ccc2nccn2c1)n1nnc2ncc(-c3cnn(C)c3)nc21 [Savolitinib]; conditions: max 1 µM
Method in brief: as §1

AZD6738 = compound: C[C@@H]1COCCN1C2=NC(=NC(=C2)C3(CC3)[S@](=N)(=O)C)C4=C5C=CNC5=NC=C4 [AZD6738]; conditions: max 10 µM
Method in brief: as §1

AZD5991 = compound: Cc1c2c(nn1C)CSCc1cc(n(C)n1)CSc1cc(c3ccccc3c1)OCCCc1c(C(=O)O)n(C)c3c-2c(Cl)ccc13 [AZD5991]; conditions: max 1 µM
Method in brief: as §1

AZD7648 = compound: Cc1cc2ncnn2cc1Nc1ncc2c(n1)n(C1CCOCC1)c(=O)n2C [AZD7648]; conditions: max 10 µM
Method in brief: as §1

Taselisib = compound: Cc1nc(-c2cn3c(n2)-c2ccc(-c4cnn(C(C)(C)C(N)=O)c4)cc2OCC3)n(C(C)C)n1 [Taselisib]; conditions: max 10 µM
Method in brief: as §1

Selumetinib = compound: Cn1cnc2c(F)c(Nc3ccc(Br)cc3Cl)c(C(=O)NOCCO)cc21 [Selumetinib]; conditions: max 10 µM
Method in brief: as §1

Olaparib = compound: O=C(c1cc(Cc2n[nH]c(=O)c3ccccc23)ccc1F)N1CCN(C(=O)C2CC2)CC1 [Olaparib]; conditions: max 10 µM
Method in brief: as §1

Cell Line: 786-0 (Kidney Carcinoma)
- IC50, cell viability 72 h (Capivasertib): 4.54 µM
- IC50, cell viability 72 h (AZD1775): 0.392 µM
- IC50, cell viability 72 h (Trametinib): > 1 µM
- IC50, cell viability 72 h (Palbociclib): > 10 µM
- IC50, cell viability 72 h (AZD1390): > 0.3 µM
- IC50, cell viability 72 h (Venetoclax): > 1 µM
- IC50, cell viability 72 h (Dasatinib): 0.396 µM
- IC50, cell viability 72 h (SG3199): > 0.001 µM
- IC50, cell viability 72 h (AZD2811): > 1 µM
- IC50, cell viability 72 h (SN-38): 0.023 µM
- IC50, cell viability 72 h (AZD0156): > 3 µM
- IC50, cell viability 72 h (AZD4320): > 1 µM
- IC50, cell viability 72 h (Alisertib): > 10 µM
- IC50, cell viability 72 h (Gefitinib): > 10 µM
- IC50, cell viability 72 h (Prexasertib): 0.0288 µM
- IC50, cell viability 72 h (Doxorubicin): 0.571 µM
- IC50, cell viability 72 h (AZD5153): 0.523 µM
- IC50, cell viability 72 h (Lapatinib): 6.48 µM
- IC50, cell viability 72 h (AZD8186): > 3 µM
- IC50, cell viability 72 h (Crizotinib): > 10 µM
- IC50, cell viability 72 h (Savolitinib): > 1 µM
- IC50, cell viability 72 h (AZD6738): 5.55 µM
- IC50, cell viability 72 h (AZD5991): > 1 µM
- IC50, cell viability 72 h (AZD7648): > 10 µM
- IC50, cell viability 72 h (Taselisib): > 10 µM
- IC50, cell viability 72 h (Selumetinib): > 10 µM
- IC50, cell viability 72 h (Olaparib): > 10 µM

Cell Line: AN3-CA (Endometrial Carcinoma)
- IC50, cell viability 72 h (Capivasertib): 1.65 µM
- IC50, cell viability 72 h (AZD1775): 1.29 µM
- IC50, cell viability 72 h (Trametinib): > 1 µM
- IC50, cell viability 72 h (Palbociclib): > 10 µM
- IC50, cell viability 72 h (AZD1390): > 0.3 µM
- IC50, cell viability 72 h (Venetoclax): > 1 µM
- IC50, cell viability 72 h (Dasatinib): > 2 µM
- IC50, cell viability 72 h (SG3199): > 0.001 µM
- IC50, cell viability 72 h (AZD2811): > 1 µM
- IC50, cell viability 72 h (SN-38): > 0.3 µM
- IC50, cell viability 72 h (AZD0156): > 3 µM
- IC50, cell viability 72 h (AZD4320): > 1 µM
- IC50, cell viability 72 h (Alisertib): 1.37 µM
- IC50, cell viability 72 h (Gefitinib): > 10 µM
- IC50, cell viability 72 h (Prexasertib): 0.0665 µM
- IC50, cell viability 72 h (Doxorubicin): > 1 µM
- IC50, cell viability 72 h (AZD5153): > 1 µM
- IC50, cell viability 72 h (Lapatinib): > 10 µM
- IC50, cell viability 72 h (AZD8186): > 3 µM
- IC50, cell viability 72 h (Crizotinib): > 10 µM
- IC50, cell viability 72 h (Savolitinib): > 1 µM
- IC50, cell viability 72 h (AZD6738): > 10 µM
- IC50, cell viability 72 h (AZD5991): > 1 µM
- IC50, cell viability 72 h (AZD7648): > 10 µM
- IC50, cell viability 72 h (Taselisib): 0.615 µM
- IC50, cell viability 72 h (Selumetinib): > 10 µM
- IC50, cell viability 72 h (Olaparib): > 10 µM
